Test results reported in PubChem BioAssay (NCI).
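Step 1: Grow cells in 96-well plates. Step 2: Expose to compound for 48 hours at 5 concentrations. Step 3: Interpolate endpoints linearly; if unreached, use highest concentration. TGI denotes the concentration required for complete inhibition of growth.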

How the values were obtained:
Experiment in all cases: inhibition of tumour cell growth, NCI panel, 48 h
786-0 renal = tested on: 786-0 renal
A498 renal = tested on: A498 renal
A549 NSCLC = tested on: A549 NSCLC
ACHN renal = tested on: ACHN renal
BT-549 breast = tested on: BT-549 breast
CAKI-1 renal = tested on: CAKI-1 renal
CCRF-CEM leukemia = tested on: CCRF-CEM leukemia
COLO 205 colon = tested on: COLO 205 colon
DU-145 prostate = tested on: DU-145 prostate
EKVX NSCLC = tested on: EKVX NSCLC
HCC-2998 colon = tested on: HCC-2998 colon
HCT-116 colon = tested on: HCT-116 colon
HCT-15 colon = tested on: HCT-15 colon
HL-60(TB) leukemia = tested on: HL-60(TB) leukemia
HOP-62 NSCLC = tested on: HOP-62 NSCLC
HOP-92 NSCLC = tested on: HOP-92 NSCLC
HS 578T breast = tested on: HS 578T breast
IGROV1 ovarian = tested on: IGROV1 ovarian
K-562 leukemia = tested on: K-562 leukemia
KM12 colon = tested on: KM12 colon
M14 melanoma = tested on: M14 melanoma
MALME-3M melanoma = tested on: MALME-3M melanoma
MCF7 breast = tested on: MCF7 breast
MDA-MB-435 = tested on: MDA-MB-435
MOLT-4 leukemia = tested on: MOLT-4 leukemia
NCI-H23 lung = tested on: NCI-H23 lung
NCI-H460 lung = tested on: NCI-H460 lung
NCI-H522 lung = tested on: NCI-H522 lung
NCI/ADR-RES ovarian = tested on: NCI/ADR-RES ovarian
OVCAR-3 ovarian = tested on: OVCAR-3 ovarian
OVCAR-4 ovarian = tested on: OVCAR-4 ovarian
OVCAR-5 ovarian = tested on: OVCAR-5 ovarian
OVCAR-8 ovarian = tested on: OVCAR-8 ovarian
PC-3 prostate = tested on: PC-3 prostate
RPMI-8226 leukemia = tested on: RPMI-8226 leukemia
RXF 393 renal = tested on: RXF 393 renal
SF-268 CNS = tested on: SF-268 CNS
SF-295 CNS = tested on: SF-295 CNS
SF-539 CNS = tested on: SF-539 CNS
SK-MEL-2 melanoma = tested on: SK-MEL-2 melanoma
SK-MEL-5 melanoma = tested on: SK-MEL-5 melanoma
SK-OV-3 ovarian = tested on: SK-OV-3 ovarian
SN12C renal = tested on: SN12C renal
SNB-19 CNS = tested on: SNB-19 CNS
SNB-75 CNS = tested on: SNB-75 CNS
SW-620 colon = tested on: SW-620 colon
T-47D breast = tested on: T-47D breast
TK-10 renal = tested on: TK-10 renal
U251 CNS = tested on: U251 CNS
UACC-257 melanoma = tested on: UACC-257 melanoma
UO-31 renal = tested on: UO-31 renal

With Cc1c(-c2ccc(O)c(O)c2)oc(=O)c2c(O)cccc12 the TGI (786-0 renal) was 23.4 µM, the TGI (A498 renal) was 33.1 µM and the TGI (A549 NSCLC) was > 100 µM. The TGI (ACHN renal) was > 100 µM, the TGI (BT-549 breast) was 44.6 µM and the TGI (CAKI-1 renal) was 36 µM. For the same molecule, the TGI (CCRF-CEM leukemia) was > 100 µM, the TGI (COLO 205 colon) was 30.1 µM and the TGI (DU-145 prostate) was 47.2 µM. The TGI (EKVX NSCLC) was > 100 µM, the TGI (HCC-2998 colon) was 22.1 µM and the TGI (HCT-116 colon) was 20 µM. The TGI (HCT-15 colon) was 17.7 µM, the TGI (HL-60(TB) leukemia) was > 100 µM and the TGI (HOP-62 NSCLC) was 34.5 µM. For the same molecule, the TGI (HOP-92 NSCLC) was 58.2 µM, the TGI (HS 578T breast) was 23.9 µM and the TGI (IGROV1 ovarian) was 20.1 µM. It also gave a TGI (K-562 leukemia) of 28.1 µM, a TGI (KM12 colon) of 24.2 µM and a TGI (M14 melanoma) of 20.7 µM. The TGI (MALME-3M melanoma) was 26.9 µM, the TGI (MCF7 breast) was 34.4 µM and the TGI (MDA-MB-435) was 12.3 µM. For the same molecule, the TGI (MOLT-4 leukemia) was > 100 µM, the TGI (NCI-H23 lung) was 22 µM and the TGI (NCI-H460 lung) was 41 µM. For the same molecule, the TGI (NCI-H522 lung) was 15.5 µM, the TGI (NCI/ADR-RES ovarian) was 29.7 µM and the TGI (OVCAR-3 ovarian) was 66.1 µM. For the same molecule, the TGI (OVCAR-4 ovarian) was 40.4 µM, the TGI (OVCAR-5 ovarian) was 33.5 µM and the TGI (OVCAR-8 ovarian) was > 100 µM. For the same molecule, the TGI (PC-3 prostate) was 52.1 µM, the TGI (RPMI-8226 leukemia) was 50 µM and the TGI (RXF 393 renal) was 36 µM. It also gave a TGI (SF-268 CNS) of 50.7 µM, a TGI (SF-295 CNS) of 42.2 µM and a TGI (SF-539 CNS) of 48.4 µM. The TGI (SK-MEL-2 melanoma) was 28 µM, the TGI (SK-MEL-5 melanoma) was 24.8 µM and the TGI (SK-OV-3 ovarian) was 40.9 µM. It also gave a TGI (SN12C renal) of 19.5 µM, a TGI (SNB-19 CNS) of 36.1 µM and a TGI (SNB-75 CNS) of 76 µM. The TGI (SW-620 colon) was 61.2 µM, the TGI (T-47D breast) was 15.4 µM and the TGI (TK-10 renal) was 67 µM. The TGI (U251 CNS) was 26.1 µM, the TGI (UACC-257 melanoma) was 44.3 µM and the TGI (UO-31 renal) was 24.4 µM.
